Source: patent publication US20070078180A1, “Methods and compositions for stabilizing an antioxidant” (priority 2005, published 2007)

Key:
[1] = Degradation by hydroxyl radicals from the Fenton reaction (HPLC); type: physicochemical; settings: room temperature, one hour
Experimental: (§1) HPLC Analysis of CoQ10. The amount of CoQ10 remaining in degradation experiments below were determined by High Pressure Liquid Chromatography (HPLC). The column used was a Microsorb C18 reverse phase column (15 cm×0.46 cm), the mobile phase consisted of 85% methanol and 15% hexane at a flow rate of 1 ml/minute and CoQ10 was detected at […]. The instrument used was a HP 1090 gradient HPLC system with photodiode array detector and autosampler.
Methods and Materials. The following experiment examined the effect of the hydroxyl radical on CoQ10. The hydroxyl radical is a reactive oxygen species (“ROS”) produced in the human body. The radical is generated by the reaction of iron with hydrogen peroxide (commonly called the Fenton reaction).
For this experiment, CoQ10 was prepared in a solution of chloroform/ethanol (1:1) at a concentration of 10 micrograms/ml. The Fenton reaction was then initiated by the addition of hydrogen peroxide and iron (III) chloride and allowed to proceed at room temperature for one hour, at which time samples were injected on HPLC.

[2] = Oxidation of CoQ10 by 0.03% hypochlorite, with lycopene or colorless carotenoids (HPLC); type: physicochemical; settings: Example 7, 1.5 hours
Experimental: as §1
Methods and Materials. The following experiment was a comparison of the impact that colorless carotenoids or lycopene have on CoQ10 when CoQ10 is exposed to hypochlorite oxidation.
695 μg/ml of CoQ10 was prepared in chloroform/ethanol (1:1). The calculated amounts of phytoene and phytofluene used in the study was 0.0142% and 0.0012%, respectively. The calculated amount of lycopene was 2 mg/ml in chloroform. Four plates of cells were prepared and allowed to attach overnight as described above. CoQ10 was then added to each of the plates. Further, lycopene was added to one of the plates, and the carotenoids were added to another. Three plates (one of the plates containing only CoQ10 was treated as a control) were then incubated with 0.03% hypochlorite (“HOCL”) for 1.5 hours. Then the samples were removed and assayed by HPLC to determine CoQ10 levels.

[3] = Oxidation of CoQ10 by sodium hypochlorite, with or without lycopene (HPLC); type: physicochemical
Experimental: as §1
Methods and Materials. The following experiment examined the effect of sodium hypochlorite on CoQ10.
For this experiment, CoQ10 was prepared in HPLC “mobil phase” (methanol:hexane) and incubated with different concentrations of sodium hypochlorite prepared in water/methanol. The reaction was allowed to proceed for up to 30 minutes, at which time samples were injected on HPLC.
The stock lycopene was 10 mg/ml in soybean oil. It was diluted into toluene and used in the reaction at 0.1% lycopene. To allow the CoQ10, hypochlorite aqueous solution and lycopene to react, a detergent was used to bring the polar and nonpolar phases together. The incubation lasted for 30 minutes.

[4] = Solubility of CoQ10 in solvents compatible with cultured cells; type: physicochemical
Source text: Because of the very poor solubility of CoQ10 in any solvent that is compatible with cultured cells, 10 μm of CoQ10 was the maximum final concentration that could be used in culture medium.

[5] = system: MMP-1; experiment: IL-1-induced MMP-1 in dermal fibroblasts (ELISA); type: cell-based, human; settings: Example 3; CoQ10 10 μM, 24 hours
[6] = Effect of UVB radiation on stability of CoQ10 in culture with fibroblasts (HPLC); type: physicochemical; settings: fibroblast culture, 10 μM CoQ10, 24 hours
Experimental: (§2) HPLC Methods. To measure CoQ10 levels in tissue culture medium, an appropriate high performance liquid chromatography (“HPLC”) method had to be established.
(§3) For the instant examples, a reliable HPLC method was established for CoQ10 using an isochratic method with a mobile phase of 85% methanol and 15% hexane. CoQ10 was detected at 275 nm.
as §1
(§4) Methods and Materials. The following experiment involved examining the effect of ultraviolet radiation (“UVR”) on levels of CoQ10 in culture medium. More specifically, ultraviolet-B (“UVB,” which is ultraviolet radiation ranging from about 290 nm to about 320 nm) dose-response studies were conducted on various concentrations of CoQ10 placed in either PBS buffer or into culture media. Doses of UVB ranged from 50 mJ to 200 mJ. In the culture media, 10 μm of CoQ10 was placed in a fibroblast culture for 24 hours.

[7] = system: PGE-2; experiment: UV-induced PGE-2 in dermal fibroblasts (ELISA); type: cell-based, human; settings: UVB doses of 75 mJ, 100 mJ and 125 mJ; 10 μM
Source text: Methods and Materials. The following experiment involved examining the effect of CoQ10 on UVR-induced inflammatory mediators in human dermal fibroblasts. That is, because skin aging is known to be accelerated by inflammatory cytokines produced in the skin by UVR, this experiment assessed the ability of CoQ10 to inhibit the production of the inflammatory mediators produced in human dermal fibroblasts in response to either UVB radiation or to stimulation by IL-1, a pro-inflammatory cytokine produced in keratinocytes by UVR. […]
The cells were isolated and cultured as follows. The dermal fibroblasts were isolated from human neonatal foreskin and cultured in Dulbecco's modified eagle media with L-glutamine and 4.5 mM glucose and without sodium pyruvate (“DMEM”) (available from Fisher Scientific, Pittsburgh, Pa.) containing 5% horse serum (available from Hyclone, Logan, Utah), 5% fetal bovine serum (available from Hyclone), and penicillin/streptomycin (100 U/100 μg/ml). Cell cultures were grown at 37° C. in a humidified CO2 incubator (5% CO2). […]
(§5) For the experiments, cells were seeded into 12 well culture dishes in complete growth medium at a density of 10^5 cells/well and allowed to attach overnight. […] Cells were incubated for 24 hours at 37° C., at which time the media was removed for assay and the cells counted. […]

[8] = Oxidation of CoQ10 by potassium hydroxide, with or without colorless carotenoids (HPLC); type: physicochemical; settings: 600 μM CoQ10, 1 mM KOH, 30 minutes, room temperature
Experimental: as §1
Methods and Materials. The following experiment examined whether colorless carotenoids could protect CoQ10 from potassium hydroxide oxidation.
600 μM of CoQ10 was prepared in chloroform stock. 500 μg/ml of the colorless carotenoids was prepared in DMSO. The calculated amount of potassium hydroxide (“KOH”) was 1 mM. Three plates of cells were prepared and allowed to attach overnight as described above. CoQ10 was then added to each of the plates. Further, KOH was added to two of the plates (one was maintained as a control containing only CoQ10). Further, the carotenoids were added to one of the plates containing KOH. Reactions were performed in a total volume of 1 ml. The cells containing KOH were incubated for 30 minutes at room temperature with the KOH. Then the samples were removed and assayed by HPLC to determine CoQ10 levels.

[9] = Effect of UVB radiation on stability of CoQ10 in PBS buffer (HPLC); type: physicochemical
Experimental: as §2, §3, §1, §4

[10] = system: MMP-1; experiment: UV-induced MMP-1 in dermal fibroblasts (ELISA); type: cell-based, human; settings: 10 micromolar, 50 mJ UV, 24 hours
Source text: (§6) Methods and Materials. The following experiment involved examining the effect of CoQ10 on UVR-induced inflammatory mediators in human dermal fibroblasts. That is, because skin aging is known to be accelerated by inflammatory cytokines produced in the skin by UVR, this experiment assessed the ability of CoQ10 to inhibit the production of the inflammatory mediators produced in human dermal fibroblasts in response to either UVB radiation or to stimulation by IL-1, a pro-inflammatory cytokine produced in keratinocytes by UVR.
(§7) The dose of UV for stimulating the production in fibroblasts of each of the inflammatory mediators—PGE-2, IL-6, IL-8, and the matrix metalloproteinase (“MMP-1”)—was 50 mJ.
(§8) The cells were isolated and cultured as follows. […]
as §5

[11] = system: PGE-2; experiment: IL-1-induced PGE-2 in dermal fibroblasts; type: cell-based, human; settings: 24 hours
Experimental: The cells were isolated and cultured as follows. The dermal fibroblasts were isolated from human neonatal foreskin and cultured in Dulbecco's modified eagle media with L-glutamine and 4.5 mM glucose and without sodium pyruvate (“DMEM”) (available from Fisher Scientific, Pittsburgh, Pa.) containing 5% horse serum (available from Hyclone, Logan, Utah), 5% fetal bovine serum (available from Hyclone), and penicillin/streptomycin (100 U/100 μg/ml). Cell cultures were grown at 37° C. in a humidified CO2 incubator (5% CO2). Cells were passaged prior to confluence by removing cells with a trypsin/EDTA solution, followed by centrifugation and re-seeding.
as §5, with “overnight. The medium was then replaced with PBS for irradiation. A bank of two commercially available FS20 lamps were used for irradiation of cells.” for “overnight.”
The impact of CoQ10, colorless carotenoids, and a combination of both on PGE-2 in fibroblasts stimulated with IL-1 was examined. […] All of the plates were then incubated for 24 hours and then the media was removed from culture and cells counted.

[12] = system: IL-6; experiment: UV-induced IL-6 in dermal fibroblasts (ELISA); type: cell-based, human; settings: 10 micromolar, 24 hours
Source text: as §6, §7, §8, §5

SMILES	reduction of amount by the Fenton reaction ([1]; hydrogen peroxide and iron (III) chloride) [%]	oxidation of CoQ10 by hypochlorite in the presence of the carotenoid ([2]; 0.03% hypochlorite, lycopene 2 mg/ml, or phytoene 0.0142% and phytofluene 0.0012%)	oxidation of CoQ10 by hypochlorite in the presence of the carotenoid ([3]; Example 6, 0.1% lycopene, detergent, 30 minutes)	solubility ([4]; any solvent compatible with cultured cells)	maximum final concentration that could be used in culture medium ([4]; culture medium) [μm]	blocking the IL-1 induction in MMP-1 [5]	abundance or structure after the Fenton reaction ([1]; 10 micrograms/ml in chloroform/ethanol (1:1))	amount of CoQ10 after UVB radiation [6]	effect on levels of PGE-2 after UVB irradiation [7]	loss of CoQ10 due to oxidation by potassium hydroxide [8] [%]	loss of CoQ10 caused by hypochlorite ([2]; 695 μg/ml CoQ10, 0.03% hypochlorite) [%]	stability of CoQ10 to UVB ([9]; UVB doses 50 mJ to 200 mJ)	decrease in the concentration of CoQ10 ([9]; high UVB doses, within experimental error)	level of UVR-induced MMP1 [10]	IL-1 induction of PGE-2 ([11]; Example 2, 10 micromolar, IL-1 100 picograms/ml)	inhibition at 10 µM ([11]; Homo sapiens, Fibroblast, Example 3, CoQ10 10 μM, colorless carotenoid 15 micrograms/ml, read-out: inhibition of the IL-1 induction of PGE-2) [%]	loss of CoQ10 caused by sodium hypochlorite ([3]; Example 5, methanol:hexane, up to 30 minutes) [%]	level of IL-6 induced in UVR-treated fibroblasts [12]
CC(C)=CCC/C(C)=C/C=C/C(C)=C/C=C/C(C)=C/C=C/C=C(C)/C=C/C=C(C)/C=C/C=C(\C)CCC=C(C)C [lycopene]	50	caused a reduction in oxidation	significantly reduced															
COC1=C(OC)C(=O)C(C/C=C(\C)CC/C=C(\C)CC/C=C(\C)CC/C=C(\C)CC/C=C(\C)CC/C=C(\C)CC/C=C(\C)CC/C=C(\C)CC/C=C(\C)CCC=C(C)C)=C(C)C1=O [CoQ10, coenzyme Q10]				very poor	10	ineffective	did not cause a reduction	generally unaffected	only a small inhibitory effect	80	60	exhibited stability	< 10	back to near control levels	significant reduction	16	50	markedly lowered
